Test results reported in patent publication US6875760B2 (Novo Nordisk A/S, priority 1999, dated 2005).
pIC50: −log10 of the molar value.

target: T1, cloned human glucagon receptor (Homo sapiens, UniProt P47871); assay: Glucagon Binding Assay (II); conditions: plasma membranes of BHK cells expressing the receptor; read-out: Glu Bd Assay (II) IC50
T1 construct: expressed in transfected cells; plasma membrane preparation
T1 sequence (P47871 26-477): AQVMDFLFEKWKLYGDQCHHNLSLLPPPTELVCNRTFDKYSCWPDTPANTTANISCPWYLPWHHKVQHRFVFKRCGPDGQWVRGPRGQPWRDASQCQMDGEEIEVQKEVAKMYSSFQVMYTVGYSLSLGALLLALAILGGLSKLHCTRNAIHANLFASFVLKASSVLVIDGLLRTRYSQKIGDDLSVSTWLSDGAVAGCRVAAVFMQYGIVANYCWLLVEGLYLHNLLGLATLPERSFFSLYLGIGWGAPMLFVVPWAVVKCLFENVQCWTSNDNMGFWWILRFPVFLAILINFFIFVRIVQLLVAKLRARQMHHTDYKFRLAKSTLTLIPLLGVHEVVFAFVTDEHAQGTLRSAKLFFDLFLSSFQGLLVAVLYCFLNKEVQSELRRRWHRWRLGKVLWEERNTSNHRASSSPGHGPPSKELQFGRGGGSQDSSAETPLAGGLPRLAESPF

Structure (SMILES)	pIC50
O=C(O)CCNC(=O)c1ccc(CN(C(=O)Nc2ccc(OC(F)(F)F)cc2)C2CCC3(CC2)SCCS3)cc1 [Example 178, 3-{4-[1-(1,4-Dithiaspiro[4.5]dec-8-yl)-3-(4-trifluoromethoxyphenyl)ureidomethyl]benzoylamino)propionic acid]	6.00
CC(C)(C)C1CCC(N(Cc2ccc(S(=O)(=O)NCCC(=O)O)cc2)C(=O)Nc2ccc(SC(F)(F)F)cc2)CC1 (stereo not shown) [Example 105, 3-{4-[1-(4-tert-Butylcyclohexyl)-3-(4-trifluoromethylsulfanylphenyl)ureidomethyl]benzenesulfonylamino)propionic acid]	6.35
CC1CC(N(Cc2ccc(C(=O)NCCC(=O)O)cc2)C(=O)Nc2cc(Cl)cc(Cl)c2)CC(C)(C)C1 (stereo not shown) [Example 176, 3-{4-[3-(3,5-Dichlorophenyl)-1-(3,3,5-trimethylcyclohexyl)ureidomethyl]benzoylamino)propionic acid]	6.19
O=C(O)CCNC(=O)c1ccc(CN(C(=O)Nc2ccc(OC(F)(F)F)cc2)C2CC2c2ccccc2)cc1 (stereo not shown) [Example 231, 3-{4-[1-(2-Phenylcyclopropyl)-3-(4-trifluoromethoxyphenyl)ureidomethyl]benzoylamino}propionic acid]	6.46
O=C(Nc1nn[nH]n1)c1ccc(CN(C(=O)Nc2ccc3[nH]ccc3c2)c2ccc(C3CCCCC3)cc2)cc1 [Example 594, 4-{1-(4-Cyclohexylphenyl)-3-(1H-indol-5-yl)ureidomethyl]-N-(2H-tetrazol-5-yl)benzamide]	6.45

Next, values leading:

pIC50	Structure (SMILES)
6.82	O=C(NCc1nn[nH]n1)c1ccc(CN(Cc2ccc(OC(F)(F)F)cc2)[C@H]2CC[C@@H](C3CCCCC3)CC2)cc1 [Example 573, 4-({(4-cis-Cyclohexylcyclohexyl)-[4-(trifluoromethoxy)benzyl]amino}methyl)-N-(2H-tetrazol-5-ylmethyl)benzamide]
7.12	CC(C)(C)[C@H]1CC[C@@H](N(Cc2ccc(C(=O)NCCC(=O)O)cc2)NC(=O)c2cc(Cl)cc(Cl)c2)CC1 [Example 588, 3-{4-[N-(cis-4-tert-Butylcyclohexyl)-N′-(3,5-dichlorobenzoyl)hydrazinomethyl]benzoylamino}propionic acid]
7.41	O=C(Nc1nn[nH]n1)c1ccc(CN(C(=O)NCc2ccc(Cl)c(Cl)c2)c2ccc(C3CCCCC3)cc2)cc1 [Example 595, 4-[1-(4-Cyclohexylphenyl)-3-(3,4-dichlorobenzyl)ureidomethyl}-N-(2H-tetrazol-5-yl)benzamide]
7.70	O=C(O)CCNC(=O)c1ccc(CN(C(=O)Nc2ccc(SC(F)(F)F)cc2)c2ccc(C3CCCCC3)cc2)cc1 [Example 233, 3-{4-[1-(4-Cyclohexylphenyl)-3-(4-trifluoromethylsulfanylphenyl)ureidomethyl]benzoylamino}propionic acid]
8.10	O=C(Nc1nn[nH]n1)c1ccc(CN(C(=O)Nc2cc(Cl)cc(Cl)c2)c2ccc(C3=CCCCC3)cc2)cc1 [Example 593, 4-[1-(4-Cyclohex-1-enylphenyl)-3-(3,5-dichlorophenyl)ureidomethyl]-N-(2H-tetrazol-5-yl)benzamide]

same assay, conditions: screened at 1 μM; library compounds; read-out: displacement of the glucagon tracer when screened at 1 μM concentration in the glucagon binding assay II

inhibition at 1 µM	Structure (SMILES)
> 50%	CC(C)(C)C1CCC(N(Cc2ccc(C(=O)Nc3ncnc4[nH]ncc34)cc2)C(=O)Nc2ccc(Cl)cc2)CC1 (stereo not shown) [Example 164, 4-[1-(4-tert-Butylcyclohexyl)-3-(4-chlorophenyl)ureidomethyl]-N-(1H-pyrazolo[3,4-d]pyrimidin-4-yl)benzamide]
> 50%	CC(C)(C)C1CCC(N(Cc2ccc(C(=O)NCCC(=O)O)o2)C(=O)Nc2ccc(Cl)c(C(F)(F)F)c2)CC1 (stereo not shown) [Example 213, 3-({5-[1-(4-tert-Butylcyclohexyl)-3-(4-chloro-3-trifluoromethylphenyl)ureidomethyl]furan-2-carbonyl}amino)propionic acid]
> 50%	COc1ccc(CN(Cc2ccc(C(=O)NCCC(=O)O)cc2)Cc2ccc(C(C)C)cc2)cc1OC [Example 149, 3-(4-{[(3,4-Dimethoxybenzyl)-(4-isopropylbenzyl)amino]methyl}benzoylamino)propionic acid]
